Data taken from patent publication US20070099917A1, “Novel inhibitors and methods for their preparation” (THE WALTER AND ELIZA HALL INSTITUTE OF MEDICAL RESEARCH, priority 2005, published 2007).

Test: Hydrolysis of FMS derivative in mouse plasma
Assay type: in vitro ADME
Settings: 100 μM in mouse plasma at 37° C., after 28 hours, RP-HPLC
Description: Mouse plasma was incubated with 100 μM FMS-6-amino-4-(3-chlorophenylamino)quinazoline at 37° C. Samples were taken and analysed on RP-HPLC as described above in Example 1b) ii). The relative amounts of the two peaks were calculated. Chromatograms of samples taken at 0 (see FIG. 5), 5 (see FIG. 6) and 22 (see FIG. 7) hours show the relative change in the amount of the two compounds (i.e. FMS-6-amino-4-(3-chlorophenylamino)quinazoline vs 6-amino-4-(3-chlorophenylamino)quinazoline) in the plasma after incubation at 37° C.

Hydrolysis to 6-amino-4-(3-chlorophenylamino)quinazoline in mouse plasma: almost completely hydrolysed
Structure (SMILES): O=C(Nc1ccc2ncnc(Nc3cccc(Cl)c3)c2c1)OCC1c2ccccc2-c2ccc(S(=O)(=O)O)cc21 (stereo not shown) [FMS-6-amino-4-(3-chlorophenylamino)quinazoline]
